The term inhibition denotes the drop in the measured response relative to a control, in per cent. A high value points to strong suppression. For orientation: IC50 means the point on the concentration scale where inhibition reaches its midpoint.

In experiment [1] the target is T1, Aurora-A (h) (Homo sapiens, UniProt O14965).
T1 construct: purchased Merck Millipore, Inc. (Abingdon, UK), Kinase Profiler service
T1 sequence (O14965 1-403): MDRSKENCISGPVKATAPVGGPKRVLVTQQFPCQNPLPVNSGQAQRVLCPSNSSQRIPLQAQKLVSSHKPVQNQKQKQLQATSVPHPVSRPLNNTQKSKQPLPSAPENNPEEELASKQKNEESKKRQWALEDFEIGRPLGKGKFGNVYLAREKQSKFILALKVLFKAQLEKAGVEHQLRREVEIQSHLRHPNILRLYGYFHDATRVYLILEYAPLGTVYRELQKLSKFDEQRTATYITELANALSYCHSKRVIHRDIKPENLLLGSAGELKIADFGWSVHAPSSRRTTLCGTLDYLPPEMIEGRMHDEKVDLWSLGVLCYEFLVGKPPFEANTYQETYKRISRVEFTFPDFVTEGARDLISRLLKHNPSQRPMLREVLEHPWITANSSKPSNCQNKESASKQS
Briefly: Kinase Profiler in vitro assay (Merck Millipore), aurora-A. The format is biochemical. Conditions: for IC50: at aurora A (h); for inhibition at 100 µM: Aurora-A, at 100 μM concentration, with standard deviation. Here is the method: The fragments obtained from the above-mentioned docking study were purchased from commercial websites and evaluated using the Kinase Profiler in vitro assay technique developed by Merck Millipore, Inc., (Abingdon, UK). The aurora-A kinase was maintained with 8 mM […] at pH 7.0, 0.2 mM EDTA, 200 μM LRRASLG (Kemptide, American peptide Company, Sunnyvale, CA, USA), 10 mM MgAcetate, and [γ-33P-ATP]. The kinase reaction began with the addition of the MgATP mixture. The buffer-MgATP mixture was incubated for 40 min at room temperature. After incubation, the reaction was stopped through the addition of a 3% phosphoric acid solution. Then, a 10 μL reaction was spotted onto a P30 filtermat. The spotted P30 filtermat was washed three times for 5 min in 50 mM phosphoric acid and once in methanol prior to the drying and scintillation counting step.

Experiment [2] concerns the target T2, Aurora-B (h) (Homo sapiens, UniProt Q96GD4).
T2 construct: purchased Merck Millipore, Inc. (Abingdon, UK), Kinase Profiler service
Briefly: Kinase Profiler in vitro assay, aurora-B. The format is biochemical.

Experiment [3] has as its target T3, Aurora-C (h) (Homo sapiens, UniProt Q9UQB9).
T3 construct: purchased Merck Millipore, Inc. (Abingdon, UK), Kinase Profiler service
T3 sequence (Q9UQB9 1-309): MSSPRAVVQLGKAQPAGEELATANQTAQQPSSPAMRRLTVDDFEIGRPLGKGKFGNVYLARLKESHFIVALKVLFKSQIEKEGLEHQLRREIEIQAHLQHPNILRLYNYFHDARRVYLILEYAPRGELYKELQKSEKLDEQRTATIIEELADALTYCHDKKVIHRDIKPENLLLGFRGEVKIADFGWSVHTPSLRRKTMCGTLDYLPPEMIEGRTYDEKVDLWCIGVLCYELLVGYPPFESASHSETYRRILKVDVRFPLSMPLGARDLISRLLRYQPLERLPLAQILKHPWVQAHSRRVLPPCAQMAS
Briefly: Kinase Profiler in vitro assay, aurora-C. The format is biochemical.

For experiment [4], the system named is aurora-A. Conditions: cited from earlier work.

T2 sequence (Q96GD4 whole entry): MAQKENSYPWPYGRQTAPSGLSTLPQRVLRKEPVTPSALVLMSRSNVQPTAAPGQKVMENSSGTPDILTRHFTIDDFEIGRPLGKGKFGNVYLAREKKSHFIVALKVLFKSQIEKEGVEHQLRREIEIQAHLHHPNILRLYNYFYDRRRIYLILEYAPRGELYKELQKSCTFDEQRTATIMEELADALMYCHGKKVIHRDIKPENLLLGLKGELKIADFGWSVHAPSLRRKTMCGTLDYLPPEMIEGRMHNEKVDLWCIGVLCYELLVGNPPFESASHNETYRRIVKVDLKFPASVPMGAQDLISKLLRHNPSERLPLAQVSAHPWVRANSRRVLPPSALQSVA

Take `O=C1C(Nc2ccc(Cl)cc2)=C(Cl)C(=O)c2[nH]c(C(F)(F)F)nc21` [Compound 16]: the inhibition at 10 µM in experiment [1] was found to be 52%; in experiment [2] it was 84 ± 1%; in experiment [3] it was 8 ± 8%. Half-maximal inhibition in experiment [1] (IC50) required 9.17 µM.

In the case of `O=C1C(Nc2cccc(Cl)c2)=C(Cl)C(=O)c2[nH]c(C(F)(F)F)nc21` [Compound 17], the inhibition at 10 µM worked out at 65% in experiment [1], 76 ± 1% in experiment [2] and 17 ± 4% in experiment [3]. The compound further displayed an IC50 in experiment [1] of 7.47 µM.

In turn, `O=c1cc(-c2ccccc2)[nH]c2nc(SCc3ccccc3)nn12` [Fragment 2] registered an inhibition at 100 µM in experiment [1] of 13 ± 12%.

Consider `Cc1cc(C)cc(Nc2ncc3c(n2)C[C@@H](c2cccs2)CC3=O)c1` [Fragment 3], for which the inhibition at 100 µM in experiment [1] is over 50%.

In experiment [1], `COC(=O)CSc1nnc(-c2n[nH]c3c2CCC3)n1N` [Fragment 4] registered an inhibition at 100 µM of 28 ± 1%.

On to `Cc1nn2c(nc3ccccc32)[nH]c1=O` [Fragment 5], for which at 100 µM the inhibition in experiment [1] was 31 ± 6%.

In experiment [1], `COC(=O)/C=C1\S/C(=N\NC(=O)c2snnc2C)NC1=O` [Fragment 7] came in with an inhibition at 100 µM of 35 ± 3%.

In turn, `COC(=O)c1nc2[nH]c(=O)cc(C)n2n1` [Fragment 8] came in with an inhibition at 100 µM in experiment [1] of 24 ± 4%.

In experiment [1], `Cc1nonc1-c1ccnc2nnc(N)n12` [Fragment 9] returned an inhibition at 100 µM of 8 ± 10%.

Take `COc1cnc(NCc2ncn[nH]2)nc1-c1ccnn1C` [Fragment 11]: in experiment [1], testing at 100 µM gave an inhibition of 25 ± 2%.

`O=C1C=CC(=O)c2[nH]c(C(F)(F)F)nc21` [Fragment 12] registered an inhibition at 100 µM in experiment [1] of 93 ± 2%.

In experiment [1], `Cc1nnsc1C(=O)Nc1onc2c1CSC2` [Fragment 13] gave an inhibition at 100 µM of over 50%.

`O=C(Nc1onc2c1CCCC2)c1nc(-c2cnccn2)no1` [Fragment 14]: the inhibition at 100 µM in experiment [1] was 39 ± 3%.

In experiment [1], `C/C=C/C(=O)Nn1cnc2c(cnn2-c2ccccc2)c1=O` [Fragment 15] registered an inhibition at 100 µM of 2 ± 15%.

For the compound `O=C(O)c1ccc(Nc2ncc3c(n2)-c2ccc(Cl)cc2C(c2c(F)cccc2F)=NC3)cc1` [MLN8054], the IC50 in experiment [4] was […].

The compound `CN[C@@H]1C[C@H]2O[C@@](C)([C@@H]1OC)n1c3ccccc3c3c4c(c5c6ccccc6n2c5c31)C(=O)NC4` [Staurosporine, reference compound] came in with an inhibition at 10 µM in experiment [1] of 100%.

The values above are taken from PMC4264174, “The Discovery of Aurora Kinase Inhibitor by Multi-Docking-Based Virtual Screening” (International Journal of Molecular Sciences, 2014).
